Data reported in US20030187023A1, “Sulfone derivatives, process for their production and use thereof” (priority 2000, published 2003).

Target: human FXa (Homo sapiens, UniProt P00742)
Experiment: Human activated coagulation factor X (FXa) inhibiting effect
Format: biochemical
Conditions: human FXa (0.3 unit/ml), substrate S-2765, 37° C., tris buffer pH 8.3, absorbance at 405 nm
Experimental: (1) Human Activated Coagulation Factor X (FXa) Inhibiting Effect
Method: A cuvette was charged with 225 μl of 0.05 M tris buffer (pH 8.3) containing 0.145 M sodium chloride and 2 mM calcium chloride, 5 μl of a sample (test compound dissolved in dimethyl sulfoxide) and 10 μl of human FXa (0.3 unit/ml), which were reacted at 37° C. for 10 minutes and then combined with 10 μl of a substrate (3 mM, S-2765) and further reacted at 37° C. for 10 minutes. Then the reaction was terminated by adding 25 μl of 50% aqueous acetic acid, and the change in the absorbance at 405 nm was determined using a spectrophotometer to calculate the concentration at which the FXa effect was inhibited by 50% (IC50).

Chain of human FXa (P00742 235-488 limits assumed): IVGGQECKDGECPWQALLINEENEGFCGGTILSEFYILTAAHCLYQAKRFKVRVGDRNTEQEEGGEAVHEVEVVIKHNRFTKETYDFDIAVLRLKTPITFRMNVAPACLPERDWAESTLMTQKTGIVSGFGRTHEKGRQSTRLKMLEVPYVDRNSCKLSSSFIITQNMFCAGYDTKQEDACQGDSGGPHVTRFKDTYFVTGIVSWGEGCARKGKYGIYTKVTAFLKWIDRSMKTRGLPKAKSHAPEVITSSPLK
Chain of human FXa (P00742 41-179 partner limits assumed): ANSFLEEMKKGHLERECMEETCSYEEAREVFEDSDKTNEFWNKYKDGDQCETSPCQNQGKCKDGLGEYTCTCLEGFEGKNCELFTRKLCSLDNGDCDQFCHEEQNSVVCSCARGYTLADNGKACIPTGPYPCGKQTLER

Molecule | IC50 [nM]
4-(6-Bromo-2-naphthyl)sulfonyl-N-methyl-N-[1-(2-methyl-4-pyridyl)-4-piperidyl]propanamide [Example 64] | 36
4-(6-Chloro-2-naphthyl)sulfonyl-N-methyl-N-[1-(2-methyl-4-pyridyl)-4-piperidinyl]propanamide [Example 42] | 61
4-(6-Chloro-2-naphthyl)sulfonyl-N-methyl-N-[1-(4-pyridyl)-4-piperidyl]propanamide [Example 31] | 50
CN(CCCS(=O)(=O)c1ccc2cc(Cl)ccc2c1)C(=O)C1CCN(c2ccncc2)CC1 [Example 5, N-[3-(6-Chloro-2-naphthyl)sulfonylpropyl]-N-methyl-1-(4-pyridyl)-4-piperidinecarboxamide] | 95
COC(=O)CN(CCCS(=O)(=O)c1ccc2cc(Cl)ccc2c1)C(=O)C1CCN(c2ccncc2)CC1 [Example 14, Methyl 2-[N-[3-(6-chloro-2-naphthyl)sulfonylpropyl]-N-[[1-(4-pyridyl)-4-piperidinyl]carbonyl]amino]acetate] | 60
CCOC(=O)CN(C(=O)CCS(=O)(=O)c1ccc2cc(Cl)ccc2c1)C1CCN(c2ccncc2)CC1 [Example 33, Ethyl 2-[N-[3-(6-chloro-2-naphthyl)sulfonylpropioyl]-N-[1-(4-pyridyl)-4-piperidyl]amino]acetate] | 55
CCOC(=O)CCN(C(=O)CCS(=O)(=O)c1ccc2cc(Cl)ccc2c1)C1CCN(c2ccncc2)CC1 [Example 34, Ethyl 3-[N-[3-(6-chloro-2-naphthyl)sulfonylpropioyl]-N-[1-(4-pyridyl)-4-piperidyl]amino]propionate] | 37
CC(=O)NCCN(C(=O)CCS(=O)(=O)c1ccc2cc(Cl)ccc2c1)C1CCN(c2ccnc(C)c2)CC1 [Example 52, N-(2-Acetylaminoethyl)-3-(6-chloro-2-naphthyl)sulfonyl-N-[1-(2-methyl-4-pyridyl)-4-piperidyl]propanamide] | 49
CC(=O)NCCN(C(=O)CCS(=O)(=O)c1ccc2cc(Cl)ccc2c1)C1CCN(c2ccncc2)CC1 [Example 54, N-(2-Acetylaminoethyl)-3-(6-chloro-2-naphthyl)sulfonyl-N-[1-(4-pyridyl)-4-piperidyl]propanamide] | 39
CS(=O)(=O)NCCN(C(=O)CCS(=O)(=O)c1ccc2cc(Cl)ccc2c1)C1CCN(c2ccncc2)CC1 [Example 55, 3-(6-Chloro-2-naphthyl)sulfonyl-N-(2-methylsulfonylaminoethyl)-N-[1-(4-pyridyl)-4-piperidyl]propanamide] | 40
CCOC(=O)CCN(C(=O)CCS(=O)(=O)c1ccc2cc(Cl)ccc2c1)C1CCN(c2ccnc(C)c2)CC1 [Example 67, Ethyl 3-[N-[3-(6-chloro-2-naphthyl)sulfonylpropanoyl]-N-[1-(2-methyl-4-pyridyl)-4-piperidyl]amino]propionate] | 25
Cc1cc(N2CCC(N(CCC(=O)N3CC[S+]([O-])CC3)C(=O)CCS(=O)(=O)c3ccc4cc(Cl)ccc4c3)CC2)ccn1 [Example 68, 3-(6-Chloro-2-naphthyl)sulfonyl-N-[1-(2-methyl-4-pydiryl)-4-piperidyl]-N-[3-oxy-3-(1-oxothiomorpholin-4-yl)propyl]propionamide] | 34
CC(=O)N(C)CCN(C(=O)CCS(=O)(=O)c1ccc2cc(Cl)ccc2c1)C1CCN(c2ccnc(C)c2)CC1 [Example 75, N-[2-(N-Acetyl-N-methylamino)ethyl]-3-(6-chloro-2-naphthyl)sulfonyl-N-[1-(2-methyl-4-pyridyl)-4-piperidyl]propanamide] | 59
Cc1cc(N2CCC(N(C)C(=O)CCS(=O)(=O)c3ccc4cc(Cl)ccc4c3)CC2)cc(C)n1 [Example 118, 3-(6-Chloro-2-naphthyl)sulfonyl-N-[1-(2,6-dimethyl-4-pyridyl)-4-piperidyl]-N-propanamide] | 63
Cc1cc(N2CCC(N(Cc3ccccn3)C(=O)CCS(=O)(=O)c3ccc4cc(Cl)ccc4c3)CC2)ccn1 [Example 129, 3-(6-Chloro-2-naphthyl)sulfonyl-N-[1-(2-methyl-4-pyridyl)-4-piperidyl]-N-(2-pyridyl)methylpropanamide] | 66
N-(2-Aminoethyl)-3-(6-chloro-2-naphthyl)sulfonyl-N-[1-(2-methyl-4-pyridyl)-4-piperidyl]propanamide ditrifluoroacetate [Example 53] | 95
